For experiment [1], the system named is airway epithelial specific TMEM16A knockout mice. Nature of the experiment: Airway mucus in airway epithelial specific TMEM16A knockout mice. The experiment is classed as in vivo, mouse. Particulars: 1 mg/kg intraperitoneally for 5 days. As to the method: In another set of experiments, airway epithelial specific TMEM16A knockout mice were treated with benzbromarone. Airway epithelial specific TMEM16A knockout mice accumulate mucus in club cells, likely due to a secretory defect (FIG. 20A). Benzbromarone […], intraperitoneally) was applied for 5 days to mice with an airway epithelial specific knockout of TMEM16A. […] Thus benzbromarone is beneficial in the treatment of CF by reducing airway mucus plugging and therefore improving lung function.

Experiment [2] deals with TMEM16A-expressing HEK293 cells. Put plainly: FM4-64 fluorescence (exocytosis) in TMEM16A-expressing HEK293 cells. Type of experiment: cell-based. Particulars: 10 μM. The protocol:
FIG. 8: TMEM16A controls exocytosis. • A) Whole cell current/voltage relationships obtained in mock transfected and TMEM16A (T16A) expressing HEK293 cells. Stimulation with the Ca^2+ ionophore ionomycin (Iono; 1 μM) activated whole cell currents in TMEM16A-expressing cells (n=12). • B) Increase of FM4-64 fluorescence upon stimulation with ionomycin in mock-transfected and TMEM16A-expressing cells, and inhibition by CaCCinhAO1 (AO1; 10 μM) (n=30). • C) Effect of ATP, or • D) CCH (both 100 μM) on FM4-64 fluorescence in cells expressing P2Y2 or M3 receptors (n=30). Mean±SEM. *significant increase by Iono (paired t-test). #significant difference when compared to mock (unpaired t-test).

The subject of experiment [3] is airways of OVA-sensitized mice. Nature of the experiment: OVA-induced allergic airway inflammation in mice (alcian blue mucus staining, airway cross section, CD45 infiltration). The settings on record: for OVA-induced mucus production: wt mice, tracheal instillation, niflumic acid 20 μM or niclosamide 5 μM. Type of experiment: in vivo, mouse. As to the method:
Intestinal sections were collected for histological analyses. Mouse airways were fixed by transcardial fixation and were embedded in paraffin or were used as cryosections. For paraffin sections, tissues were fixed in 4% paraformaldehyde (PFA), 0.2% picric acid and 3.4% sucrose in PBS, and were washed in methanol before embedding in paraffin. Sections were stained according to standard Periodic acid-Schiff (PAS) or Alcian Blue methods and assessed by light microscopy.
Mouse models were performed according to the previous example. For investigating mucus, IL-8 release, and leukocytes, tissues were fixed using 4% paraformaldehyde (PFA), 0.2% picric acid and 3.4% sucrose in PBS and washed in methanol before embedding in paraffin. Mucus was analyzed using standard Periodic acid-Schiff (PAS) or alcian blue staining. MUC5AC was stained using anti-MUC5AC mouse antibody (1:200, Abcam, ab3649) and a secondary antibody conjugated with Alexa488 (Life Technologies, A-21206). Nuclei were stained with Hoe33342 (0.1 μg/ml PBS, Aplichem, Darmstadt, Germany). Quantikine ELISA kits (R&D systems) were used to measure secretion of the cytokine IL-8 by Calu3 cells.
All methods were performed as described in the previous examples. Mice were treated with ovalbumin (OVA) to induce an allergic reaction which leads to airway inflammation. […] After allergization with OVA and development of airway inflammation, excessive mucus production and inflammatory infiltration with immune cells is observed. Activation of cholinergic receptors using the muscarinic agonist carbachol (CCH) results in constriction of the airways and secretion of mucus (FIG. 5A-C). 3-day treatment using niclosamide reduced the CCH-induced constriction of the airways (FIG. 1). Furthermore, mucus secretion and inflammatory infiltrates were reduced.
OVA-induced allergic airway inflammation in mice caused pronounced airway goblet cell metaplasia. […] NFA is a well know inhibitor of Ca^2+ activated Cl^− channels and inhibits TMEM16A. The two main TMEM16 paralogs expressed in airway epithelial and smooth muscle cells, TMEM16A and TMEM16F, were expressed in HEK293 cells and the whole cell currents upon activation by the Ca^2+ ionophore ionomycin (Iono) were measured. […] Novel therapeutic strategies for the treatment of inflammatory airway diseases such as CF may therefore consider the use of inhibitors of TMEM16.
The present inventors disclose that airway epithelial knockout of TMEM16A causes a defect in basal, i.e. ATP-mediated mucus secretion. […] Mucus synthesis under inflammatory (OVA) conditions and mucus release upon cholinergic stimulation, however, were not compromised (FIG. 16C). […] Because basal mucus production still occurs in the absence of TMEM16A, other TMEM16 paralogs may also be in charge of mucus synthesis.

Another experiment addresses T1, TMEM16A (Homo sapiens, UniProt Q5XXA6).
T1 sequence (Q5XXA6 1-986): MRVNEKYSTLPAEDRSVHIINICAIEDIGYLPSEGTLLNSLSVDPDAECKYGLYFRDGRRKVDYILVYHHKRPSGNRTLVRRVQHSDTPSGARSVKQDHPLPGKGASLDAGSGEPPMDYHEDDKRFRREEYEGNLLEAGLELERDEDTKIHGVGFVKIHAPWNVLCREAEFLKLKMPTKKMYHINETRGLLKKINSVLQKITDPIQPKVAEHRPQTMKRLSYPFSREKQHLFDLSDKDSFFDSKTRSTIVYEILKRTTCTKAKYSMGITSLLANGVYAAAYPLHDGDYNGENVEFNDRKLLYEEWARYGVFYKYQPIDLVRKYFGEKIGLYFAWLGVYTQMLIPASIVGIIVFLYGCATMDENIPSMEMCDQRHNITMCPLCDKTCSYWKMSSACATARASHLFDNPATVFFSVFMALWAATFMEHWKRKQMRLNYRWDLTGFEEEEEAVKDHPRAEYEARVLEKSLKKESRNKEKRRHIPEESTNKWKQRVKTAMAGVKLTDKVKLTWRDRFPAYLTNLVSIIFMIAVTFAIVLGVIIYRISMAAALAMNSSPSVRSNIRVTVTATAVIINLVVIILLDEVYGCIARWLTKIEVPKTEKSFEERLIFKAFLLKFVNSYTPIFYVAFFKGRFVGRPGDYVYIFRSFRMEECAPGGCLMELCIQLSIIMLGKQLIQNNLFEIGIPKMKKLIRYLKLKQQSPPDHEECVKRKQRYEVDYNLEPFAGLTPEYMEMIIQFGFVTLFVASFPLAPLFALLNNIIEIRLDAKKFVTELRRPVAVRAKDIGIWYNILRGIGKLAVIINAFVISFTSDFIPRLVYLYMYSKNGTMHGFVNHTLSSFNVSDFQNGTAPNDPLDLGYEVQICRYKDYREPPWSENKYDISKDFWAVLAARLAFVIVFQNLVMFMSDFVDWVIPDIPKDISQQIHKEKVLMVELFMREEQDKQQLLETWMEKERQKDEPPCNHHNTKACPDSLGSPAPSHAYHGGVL
Put plainly: Whole cell currents in HEK293 cells expressing TMEM16A (patch clamp). The settings on record: HEK293; 1 nM ionomycin; NFA. The arrangement: expressed in transfected cells; host or cells: HEK293 cells. The experiment is classed as cell-based. The protocol: (§1) FIG. 14: The TMEM16-inhibitor niflumic acid attenuates inflammatory airway disease. • A,B) OVA-sensitization induced pronounced goblet cell metaplasia as indicated by alcian blue positivity. Exposure to carbachol (CCH, 25 mg/ml, nebulizer) induced release of mucus and airway […]. Bars indicate […]. […] Mean±SEM; *significant inhibition by NFA (paired ttest). # significant difference when compared to OVA (unpaired t-test). (n) number of airways analysed or number of cells examined.
(§2) FIG. 15: Inhibition of TMEM16A and TMEM16F by niclosamide. • A) TMEM16A whole cell currents in overexpressing HEK293 cells. […]
(§3) OVA-induced allergic airway inflammation in mice caused pronounced airway goblet cell metaplasia. […] The two main TMEM16 paralogs expressed in airway epithelial and smooth muscle cells, TMEM16A and TMEM16F, were expressed in HEK293 cells and the whole cell currents upon activation by the Ca^2+ ionophore ionomycin (Iono) were measured. […]
(§4) Similar to TMEM16A, also overexpressed TMEM16F was inhibited by niclosamide (FIG. 15D). […] TMEM16A was activated by ionomycin and TMEM16A currents were measured as iodide quenching.
(The patch-clamp technique gives a direct electrical read-out from membranes.)

A further experiment concerns the target T2, TMEM16F (Homo sapiens, UniProt Q4KMQ2).
T2 construct: expressed in transfected cells; host or cells: HEK293 cells
T2 sequence (Q4KMQ2 1-910): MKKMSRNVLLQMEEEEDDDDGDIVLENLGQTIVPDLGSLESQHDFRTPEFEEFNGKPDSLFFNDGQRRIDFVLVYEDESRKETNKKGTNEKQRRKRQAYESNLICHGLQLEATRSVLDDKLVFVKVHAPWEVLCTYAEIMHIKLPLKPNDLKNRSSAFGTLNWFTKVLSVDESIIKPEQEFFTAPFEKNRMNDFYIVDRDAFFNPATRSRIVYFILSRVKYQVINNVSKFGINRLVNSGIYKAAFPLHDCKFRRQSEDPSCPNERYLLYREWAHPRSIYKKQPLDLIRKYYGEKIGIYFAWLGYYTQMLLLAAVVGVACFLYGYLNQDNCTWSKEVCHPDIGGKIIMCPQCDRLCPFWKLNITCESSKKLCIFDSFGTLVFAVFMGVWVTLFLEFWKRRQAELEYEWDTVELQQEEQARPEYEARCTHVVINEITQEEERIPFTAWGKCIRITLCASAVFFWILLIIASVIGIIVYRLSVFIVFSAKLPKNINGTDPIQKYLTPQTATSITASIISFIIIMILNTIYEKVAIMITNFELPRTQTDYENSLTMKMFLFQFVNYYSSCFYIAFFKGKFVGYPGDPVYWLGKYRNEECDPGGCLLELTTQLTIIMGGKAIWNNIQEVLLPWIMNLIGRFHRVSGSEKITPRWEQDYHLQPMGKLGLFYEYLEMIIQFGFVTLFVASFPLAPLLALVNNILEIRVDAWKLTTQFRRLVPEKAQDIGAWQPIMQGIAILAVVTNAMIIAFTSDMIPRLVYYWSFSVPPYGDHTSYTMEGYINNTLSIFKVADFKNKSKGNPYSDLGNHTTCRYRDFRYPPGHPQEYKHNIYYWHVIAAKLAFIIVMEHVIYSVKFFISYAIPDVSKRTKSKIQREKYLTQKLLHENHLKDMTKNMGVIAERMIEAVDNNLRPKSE
Nature of the experiment: Whole cell currents in HEK293 cells expressing TMEM16F (patch clamp). The experiment is classed as cell-based. Particulars: HEK293; 1 nM ionomycin; NFA. As to the method: as §1, §2, §3, §4

The subject of another experiment is endogenous TMEM16A. Nature of the experiment: Iodide quenching of YFP in HT29 cells stimulated with ionomycin. The experiment is classed as cell-based. As to the method: FIG. 15: Inhibition of TMEM16A and TMEM16F by niclosamide. • A) TMEM16A whole cell currents in overexpressing HEK293 cells. […] Rate of YFP quenching (arbitrary units (au/second), when applying 20 mM iodide to the extracellular bath solution. HT29 cells stably overexpressing YFP were stimulated with […] ionomycin. 100,000 cells were seeded/well. Mean±SEM; (number of experiments) #significant inhibition when compared to the absence of the inhibitor (p<0.05; unpaired t-test); *significant activation by UTP (paired t-test).
Similar to TMEM16A, also overexpressed TMEM16F was inhibited by niclosamide (FIG. 15D). The effect of niclosamide was also examined on endogenous TMEM16A expressed in HT29 colonic carcinoma cells, which were stably transfected with iodide-sensitive yellow fluorescent protein (YFP). TMEM16A was activated by ionomycin and TMEM16A currents were measured as iodide quenching.

The mark [4] stands for this setting: OVA-sensitized mice, acute exposure to TMEM16A activator.
Setting [5] is: OVA-sensitized mice, 20 mg/kg/day intratracheal for three days before CCH, 20 mg/kg/day.

The values that follow come from patent US20210283110A1, “COMPOUND FOR USE IN THE TREATMENT OF A DISEASE CHARACTERIZED BY DYSREGULATED MUCUS PRODUCTION AND/OR SECRETION” (UNIVERSITÄT REGENSBURG, priority 2018, published 2021).

The structures appear in SMILES notation. “Also recorded” adds a separate entry of the source.

Turning to `CCc1oc2ccccc2c1C(=O)c1cc(Br)c(O)c(Br)c1` [Benzbromarone, (3,5-dibromo-4-hydroxyphenyl) (2-ethyl-1-benzofuran-3-yl)methanone], in experiment [1], the mucus production result was “largely reduced”.

For `CC(C)(C)C1CCc2c(sc(NC(=O)c3ccco3)c2C(=O)O)C1` (stereo not drawn) [CaCCinhAO1], the “increase of FM4-64 fluorescence upon stimulation with ionomycin” value in experiment [2] is recorded as “inhibition”.

`COCCN(C(=O)c1cc(OC)c(OC)c(OC)c1)c1nc(-c2ccccc2)cs1` [Eact]: in experiment [3] (setting [4]), the airway contraction result is “airway contraction” and the mucus release result is “induces massive mucus release”.

`O=C(O)c1cccnc1Nc1cccc(C(F)(F)F)c1` [NFA, niflumic acid]: in experiment [3] (setting [5]), the “CCH-induced airway contraction (airway cross sections)” value is given as “completely blocked; also recorded: strongly attenuated” and the “mucus production / airway mucus” value was “abolished; also recorded: strongly attenuated”. Besides, in experiment [3], the OVA-induced mucus production entry was “strongly reduced”. Also, in experiment [3] (listed as niflumic acid), the OVA-induced mucus production result was “inhibited mucus production”. The “TMEM16A whole cell current activated by ionomycin” value at TMEM16A is given as “potently suppressed”. Moreover, the “TMEM16F whole cell current activated by ionomycin” value on TMEM16F was “potently suppressed”.

Turning to `O=C(Nc1ncc([N+](=O)[O-])s1)c1ccccc1O` [tizoxanide, 2-hydroxy-N-(5-nitro-1,3-thiazol-2-yl)benzamide], the “potency compared with CaCCinhAO1 or dichlorophen” value in the experiment on endogenous TMEM16A (HT29 YFP iodide quenching) is reported as “more potent”. For the same molecule, the “inhibition of endogenous TMEM16A (iodide quenching of YFP)” value with endogenous TMEM16A (HT29 cells stably expressing YFP, ionomycin, 20 mM iodide) is reported as “low nanomolar range”.
